For nine compounds, viability, IC50 and EC50 results are on record in ChEMBL document CHEMBL1124466, “Synthesis of 5-[1-hydroxy(or methoxy)-2-bromo(or chloro)ethyl]-2'-deoxyuridines and related halohydrin analogues with antiviral and cytotoxic activity” (1989).

Structures are written as SMILES. Converted amounts (≈) assume the structure as drawn.

Holding throughout (format): functional
Assay [1] relates to L1210. The experiment in a line: In vitro cytotoxicity against L1210 cells at a dose 10 ug/mL. Conditions: Mus musculus, read-out: Survival.
In assay [2] the test system is L1210. The experiment in a line: In vitro cytotoxicity against L1210 cells at a dose 50 ug/mL. To be noted: Mus musculus, read-out: Survival.
The subject of assay [3] is Vero. Briefly: In vitro antiviral activity against herpes simplex virus type-1 in vero cells. Conditions: Chlorocebus sabaeus, read-out: ID50 (the source's name).
The subject of assay [4] is L1210. The experiment in a line: Effective dose against L1210 cells. Conditions: Mus musculus, read-out: ED50 (the source's name).

In the case of `O=c1[nH]c(=O)n([C@H]2C[C@H](O)[C@@H](CO)O2)cc1C(Br)C(O)I.O=c1[nH]c(=O)n([C@H]2C[C@H](O)[C@@H](CO)O2)cc1C(O)C(Br)I` (stereo partly specified), in assay [1], the viability at 10 µg/mL was found to be 79.2%. For the same compound, the viability at 50 µg/mL in assay [2] was determined as 40.1%. In addition, the IC50 in assay [3] was above 10 µg/mL.
As for `COC(CCl)c1cn([C@H]2C[C@H](O)[C@@H](CO)O2)c(=O)[nH]c1=O` (stereo partly specified), the viability at 10 µg/mL in assay [1] was 75%. The viability at 50 µg/mL in assay [2] turned out to be 38.8%. Also, the IC50 in assay [3] is above 10 µg/mL.
As for `COC(CBr)c1cn([C@H]2C[C@H](O)[C@@H](CO)O2)c(=O)[nH]c1=O` (stereo partly specified), the viability at 10 µg/mL in assay [1] worked out at 80.8%. In assay [2], the viability at 50 µg/mL stood at 11.7%. The IC50 in assay [3] was determined as 0.1 µg/mL (≈ 0.274 µM).
The corresponding values for `O=c1[nH]c(=O)n([C@H]2C[C@H](O)[C@@H](CO)O2)cc1C(O)CCl` (stereo partly specified) are 74%, 24.3% and 0.1 µg/mL (≈ 0.326 µM).
In the same order, the values of `O=c1[nH]c(=O)n([C@H]2C[C@H](O)[C@@H](CO)O2)cc1C(O)CBr` (stereo partly specified) are 65.5%, 23.7% and above 10 µg/mL.
On to `CCOC(=O)C(Br)C(O)c1cn([C@H]2C[C@H](O)[C@@H](CO)O2)c(=O)[nH]c1=O` (stereo partly specified), for which the EC50 in assay [4] came out at 11 µg/mL (≈ 26 µM). Besides, the viability at 10 µg/mL in assay [1] is 49.7%. Besides, the viability at 50 µg/mL in assay [2] worked out at 4.9%. Moreover, the IC50 in assay [3] amounted to 1 µg/mL (≈ 2.36 µM).
As to `CCOC(=O)C(I)C(O)c1cn([C@H]2C[C@H](O)[C@@H](CO)O2)c(=O)[nH]c1=O` (stereo partly specified), the viability at 10 µg/mL in assay [1] is 73.2%. The viability at 50 µg/mL in assay [2] was found to be 10.4%. Moreover, the IC50 in assay [3] turned out to be 0.1 µg/mL (≈ 0.213 µM).
As for `Nc1nc2c(ncn2COCCO)c(=O)[nH]1` [ACYCLOVIR], the IC50 in assay [3] was 0.01 µg/mL (≈ 0.0444 µM).
Take `N[C@@H](Cc1ccc(N(CCCl)CCCl)cc1)C(=O)O` [MELPHALAN]: the EC50 in assay [4] turned out to be 0.15 µg/mL (≈ 0.491 µM). Besides, the viability at 10 µg/mL in assay [1] was 2.8%. Moreover, the viability at 50 µg/mL in assay [2] came to 0%.
